Measured values published in patent US10071962B2, “Androgen receptor modulators and methods for their use” (British Columbia Cancer Agency Branch, priority 2014, dated 2018).

Target: T1, androgen receptor (AR) (Homo sapiens, UniProt P10275, T878A)
T1 construct: they express endogenous androgen receptor (AR) and secrete prostate-specific antigen (PSA); endogenous in cells; host or cells: LNCaP
T1 sequence (P10275 1-920 T878A): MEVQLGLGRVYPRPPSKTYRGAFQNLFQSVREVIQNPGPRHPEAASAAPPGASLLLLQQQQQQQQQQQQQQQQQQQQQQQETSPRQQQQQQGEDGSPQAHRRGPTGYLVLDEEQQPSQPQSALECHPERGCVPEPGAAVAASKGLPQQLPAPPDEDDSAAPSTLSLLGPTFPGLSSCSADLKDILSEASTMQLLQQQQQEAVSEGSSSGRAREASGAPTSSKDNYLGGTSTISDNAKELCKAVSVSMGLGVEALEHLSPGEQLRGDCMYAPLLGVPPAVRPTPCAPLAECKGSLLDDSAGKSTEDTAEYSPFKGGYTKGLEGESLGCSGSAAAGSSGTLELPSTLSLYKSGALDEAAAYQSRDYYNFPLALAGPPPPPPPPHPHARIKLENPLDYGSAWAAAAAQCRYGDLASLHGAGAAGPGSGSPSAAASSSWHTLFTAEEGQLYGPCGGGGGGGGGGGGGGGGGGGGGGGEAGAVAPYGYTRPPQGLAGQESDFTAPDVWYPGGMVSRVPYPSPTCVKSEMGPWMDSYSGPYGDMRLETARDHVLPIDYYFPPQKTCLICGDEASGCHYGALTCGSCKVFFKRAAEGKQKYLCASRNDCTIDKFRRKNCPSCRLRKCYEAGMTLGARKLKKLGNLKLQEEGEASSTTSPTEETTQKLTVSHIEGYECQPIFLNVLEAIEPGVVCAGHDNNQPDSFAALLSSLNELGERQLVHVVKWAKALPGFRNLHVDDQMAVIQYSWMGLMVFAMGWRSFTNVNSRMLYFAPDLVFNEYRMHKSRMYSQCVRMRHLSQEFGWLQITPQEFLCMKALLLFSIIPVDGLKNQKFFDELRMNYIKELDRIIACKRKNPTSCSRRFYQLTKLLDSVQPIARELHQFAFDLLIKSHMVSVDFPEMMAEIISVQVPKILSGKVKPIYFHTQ
Assay: PSA (6.1 kb)-luciferase reporter assay in LNCaP cells, R1881-induced AR transcriptional activity
Type: cell-based
Details: LNCaP cells transfected with PSA (6.1 kb)-luciferase; 1 h pre-treatment, R1881 1 nM, 48 h; various concentrations
Protocol: R1881 (a synthetic androgen) is employed since it is stable and avoids problems associated with the labile physiological ligand dihydrotestosterone (DHT).
LNCaP (2.4×10^4 cell/well) cells were seeded on 24-well plates overnight before transfection with PSA (6.1 kb)-luciferase plasmid (0.25 ug/well) in serum-free, red phenol-free media. The next day, cells were pre-treated with compounds of the invention for 1 hour before the addition of synthetic androgen, R1881 (1 nM) to transactivate androgen receptor (AR). After 48 h of incubation with R1881, the cells were harvested, and relative luciferase activity was determined as a read-out for androgen receptor (AR) transcriptional activity relative to a control. Test compounds were added to the cells at various concentrations and activity for each treatment was normalized to the predicted maximal activity induction (in the absence of test compounds, vehicle only). Transfection experiments were performed using triplicate wells.

Row | SMILES | luciferase activity relative to the control (read-out for AR transcriptional activity)
1 | CCC(=O)N[C@H](CCC(Cl)(Cl)Cl)C(=O)N1C(=O)C=C(OC)[C@@H]1CCC(Cl)(Cl)Cl [Compound 1-1c] | decrease in luciferase activity relative to the control
2 | CCC(=O)N[C@H](CCC(Cl)(Cl)Cl)C(=O)N1C(=O)C=C(OC)[C@@H]1CC(C)C [Compound 1-7c] | decrease in luciferase activity relative to the control
3 | C#CCCC(=O)N[C@H](CCC(Cl)(Cl)Cl)C(=O)N1C(=O)C=C(OC)[C@@H]1CC(C)C [Compound 1-9c] | decrease in luciferase activity relative to the control
4 | C#CCCC(=O)N[C@H](CCC(Cl)(Cl)Cl)C(=O)N1C(=O)C=C(OC)[C@H]1CCC(Cl)(Cl)Cl [Compound 1-2d] | decrease in luciferase activity relative to the control
5 | CCC(=O)N[C@@H](CCC(Cl)(Cl)Cl)C(=O)N1C(=O)C=C(OC)[C@@H]1CCC(Cl)(Cl)Cl [Compound 1-1a] | decrease in luciferase activity relative to the control
6 | CCC(=O)N[C@H](CCC(Cl)(Cl)Cl)C(=O)N1C(=O)C=C(OC)[C@H]1CC(C)C [Compound 1-7d] | decrease in luciferase activity relative to the control
7 | CCC(=O)N[C@H](CC(C)C)C(=O)N1C(=O)C=C(OC)[C@H]1CCC(Cl)(Cl)Cl [Compound 1-8d] | slight increase in luciferase activity relative to the control
8 | COC1=CC(=O)N(C(=O)[C@H](N)CCC(Cl)(Cl)Cl)[C@H]1CCC(Cl)(Cl)Cl [Compound 1-4c] | decrease in luciferase activity relative to the control
9 | CCS(=O)(=O)N[C@H](CCC(Cl)(Cl)Cl)C(=O)N1C(=O)C=C(OC)[C@H]1CCC(Cl)(Cl)Cl [Compound 1-6d] | decrease in luciferase activity relative to the control
10 | CCC(=O)N[C@H](CCC(Cl)(Cl)Cl)C(=O)N1C(=O)C=C(OC)[C@H]1CCC(Cl)(Cl)Cl [Compound 1-1d] | decrease in luciferase activity relative to the control
11 | CCC(=O)N[C@@H](CCC(Cl)(Cl)Cl)C(=O)N1C(=O)C=C(OC)[C@H]1CCC(Cl)(Cl)Cl [Compound 1-1b] | decrease in luciferase activity relative to the control
12 | CCC(=O)N[C@H](CC(C)C)C(=O)N1C(=O)C=C(OC)[C@@H]1CCC(Cl)(Cl)Cl [Compound 1-8c] | decrease in luciferase activity relative to the control
13 | C#CCCC(=O)N[C@H](CCC(Cl)(Cl)Cl)C(=O)N1C(=O)C=C(OC)[C@@H]1CCC(Cl)(Cl)Cl [Compound 1-2c] | decrease in luciferase activity relative to the control
14 | COC1=CC(=O)N(C(=O)[C@H](N)CCC(Cl)(Cl)Cl)[C@@H]1CCC(Cl)(Cl)Cl [Compound 1-4d] | decrease in luciferase activity relative to the control
